Measurements: the supplement of paper PMC10627819

How the values were obtained:
Test in all cases: fitness (endpoint OD595 vs no drug) (fraction); higher = more growth
S. aureus Newman = test system: S. aureus Newman
In short: (§1)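 Plates with 384 wells were inoculated at OD595 0.01 using 30 µl of TSB, LB Lennox or CY, or 55 µl for S. pneumoniae. Incubation was at 37 °C, with OD595 measured every 30 min for 14 h. Fitness is the stationary-phase transition optical density over the robust mean of no-drug control wells, after first-reading background subtraction; it is capped at 1.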

S. pneumoniae D39V = test system: S. pneumoniae D39V
In short: as §1

S. aureus DSM 20231 = test system: S. aureus DSM 20231
In short: as §1

CO[C@@]12[C@H](COC(N)=O)C3=C(C(=O)C(C)=C(N)C3=O)N1C[C@@H]1N[C@@H]12 [Mitomycin C] + Cc1cc(NS(=O)(=O)c2ccc(N)cc2)no1 [Sulfamethoxazol]
fitness
Details	first compound 0.001075 µg/mL	first compound 0.00215 µg/mL	first compound 0.0043 µg/mL	first compound 0.0156 µg/mL	first compound 0.0312 µg/mL	first compound 0.0625 µg/mL
S. aureus DSM 20231, partner 1 µg/mL	–	–	–	0.703	0.664	0.534
S. aureus DSM 20231, partner 2 µg/mL	–	–	–	0.686	0.689	0.558
S. aureus DSM 20231, partner 4 µg/mL	–	–	–	0.721	0.684	0.547
S. aureus Newman, partner 1 µg/mL	–	–	–	0.779	0.66	0.546
S. aureus Newman, partner 2 µg/mL	–	–	–	0.777	0.698	0.559
S. aureus Newman, partner 4 µg/mL	–	–	–	0.73	0.622	0.516
S. pneumoniae D39V, partner 1 µg/mL	0.886	0.851	0.773	–	–	–
S. pneumoniae D39V, partner 2 µg/mL	0.894	0.873	0.779	–	–	–
S. pneumoniae D39V, partner 4 µg/mL	0.921	0.913	0.787	–	–	–

fitness, one replicate
Details	first compound 0.002 µg/mL	first compound 0.004 µg/mL	first compound 0.008 µg/mL	first compound 0.0156 µg/mL	first compound 0.0312 µg/mL	first compound 0.0625 µg/mL
S. aureus Newman, partner 8 µg/mL	–	–	–	0.993	0.823	0.658
S. pneumoniae D39V, partner 1 µg/mL	0.81	0.724	0.496	–	–	–
S. pneumoniae D39V, partner 2 µg/mL	0.727	0.686	0.459	–	–	–
S. pneumoniae D39V, partner 4 µg/mL	0.739	0.7	0.513	–	–	–

CO[C@@]12[C@H](COC(N)=O)C3=C(C(=O)C(C)=C(N)C3=O)N1C[C@@H]1N[C@@H]12 [Mitomycin C] + COc1ccc(C[C@H](N)C(=O)N[C@H]2[C@@H](O)[C@H](n3cnc4c(N(C)C)ncnc43)O[C@@H]2CO)cc1 [Puromycin]
fitness
Details	first compound 0.001075 µg/mL	first compound 0.00215 µg/mL	first compound 0.0043 µg/mL	first compound 0.0156 µg/mL	first compound 0.0312 µg/mL	first compound 0.0625 µg/mL
S. aureus DSM 20231, partner 0.39 µg/mL	–	–	–	0.759	0.758	0.593
S. aureus DSM 20231, partner 0.78 µg/mL	–	–	–	0.776	0.78	0.638
S. aureus DSM 20231, partner 1.56 µg/mL	–	–	–	0.752	0.699	0.582
S. aureus Newman, partner 0.39 µg/mL	–	–	–	0.79	0.651	0.552
S. aureus Newman, partner 0.78 µg/mL	–	–	–	0.766	0.704	0.604
S. aureus Newman, partner 1.56 µg/mL	–	–	–	0.764	0.662	0.494
S. pneumoniae D39V, partner 1 µg/mL	0.986	0.968	0.867	–	–	–
S. pneumoniae D39V, partner 2 µg/mL	0.935	0.915	0.781	–	–	–
S. pneumoniae D39V, partner 4 µg/mL	0.798	0.775	0.654	–	–	–

fitness, one replicate
Details	first compound 0.002 µg/mL	first compound 0.004 µg/mL	first compound 0.008 µg/mL	first compound 0.0156 µg/mL	first compound 0.0312 µg/mL	first compound 0.0625 µg/mL
S. aureus DSM 20231, partner 3.12 µg/mL	–	–	–	0.807	0.594	0.363
S. aureus DSM 20231, partner 6.24 µg/mL	–	–	–	0.27	0.219	0.114
S. pneumoniae D39V, partner 1 µg/mL	0.798	0.786	0.685	–	–	–
S. pneumoniae D39V, partner 2 µg/mL	0.783	0.762	0.692	–	–	–
S. pneumoniae D39V, partner 4 µg/mL	0.628	0.612	0.541	–	–	–

CO[C@@]12[C@H](COC(N)=O)C3=C(C(=O)C(C)=C(N)C3=O)N1C[C@@H]1N[C@@H]12 [Mitomycin C] + COc1cc(Cc2cnc(N)nc2N)cc(OC)c1OC [Trimethoprim]
fitness, S. aureus DSM 20231
Details	partner 0.125 µg/mL	partner 0.25 µg/mL	partner 0.5 µg/mL	partner 1 µg/mL
first compound 0.0156 µg/mL	0.6	0.506	0.0394	0.0198
first compound 0.0312 µg/mL	0.604	0.485	0.0541	0.0233
first compound 0.0625 µg/mL	0.491	0.279	0.0513	0.0116
